# Where a name gives a salt, the structure may show the parent alone. Read-outs that look alike come from different tables or passages of the source. Marks after values point to notes of the source that are not given here.
# Experiments:
# in vivo [1] = conditions: rat, po
# [2] = Pharmacokinetics and tissue distribution after subcutaneous administration; conditions: rat
# in vivo [3] = conditions: rat, sc
# [4] = Pharmacokinetics and tissue distribution after intramuscular administration; conditions: rat
# heart = conditions: rat, in vivo
# in vivo [5] = conditions: rat, im
# [6] = Pharmacokinetics and tissue distribution after oral administration; conditions: rat
# [7] = Pharmacokinetics and tissue distribution after intravenous administration; conditions: rat
# in vivo [8] = conditions: rat, iv
smiles,measurement,setting,value
"COc1cccc2c1C(=O)c1c(O)c3c(c(O)c1C2=O)C[C@@](O)(C(=O)CO)C[C@@H]3O[C@H]1C[C@H](N)[C@H](O)[C@H](C)O1 [Doxo, Doxorubicin hydrochloride]",Cmax,in vivo [1]; heart,17200 ng/g
same,MRT last,in vivo [1]; in vivo,8.21 h
same,Tmax,in vivo [1]; in vivo,8 h
same,Cmax,in vivo [1]; kidney,32900 ng/g
same,Cmax,in vivo [1]; liver,17400 ng/g
same,Cmax,in vivo [1]; spleen,11100 ng/g
same,AUC,[2]; Blood,167.94 (h) * (μg/μL)
same,AUMC,[2]; Blood,1745.8 (h)^2 * (μg/μL)
same,Cmax,[2]; Blood,12855 µg/mL
same,MRT last,[2]; Blood,10.394 h
same,t½,[2]; Blood,7.0001 h
same,AUC,[2]; Heart,467.46 (h) * (μg/μL)
same,AUMC,[2]; Heart,13515 (h)^2 * (μg/μL)
same,Cmax,[2]; Heart,18198 µg/mL
same,MRT last,[2]; Heart,28.912 h
same,t½,[2]; Heart,18.662 h
same,AUC,[2]; Kidney,2249.1 (h) * (μg/g)
same,AUMC,[2]; Kidney,19205 (h)^2 * (μg/g)
same,Cmax,[2]; Kidney,200.93 h
same,MRT last,[2]; Kidney,8.5383 h
same,t½,[2]; Kidney,3.888 h
same,AUC,[2]; Liver,1025 (h) * (μg/μL)
same,AUMC,[2]; Liver,10140 (h)^2 * (μg/μL)
same,Cmax,[2]; Liver,71123 µg/mL
same,MRT last,[2]; Liver,9.8923 h
same,t½,[2]; Liver,5.9991 h
same,AUC,[2]; Spleen,553.3 (h) * (μg/g)
same,AUMC,[2]; Spleen,7927.3 (h)^2 * (μg/g)
same,Cmax,[2]; Spleen,34.747 h
same,MRT last,[2]; Spleen,14.327 h
same,t½,[2]; Spleen,5.3088 h
same,Tmax,in vivo [3],8 h
same,AUC,[4]; Blood,185.4 (h) * (μg/μL)
same,AUMC,[4]; Blood,1581.8 (h)^2 * (μg/μL)
same,Cmax,[4]; Blood,11032 µg/mL
same,MRT last,[4]; Blood,8.5317 h
same,t½,[4]; Blood,4.466 h
same,AUC,[4]; Heart,510.54 (h) * (μg/g)
same,AUMC,[4]; Heart,12046 (h)^2 * (μg/g)
same,MRT last,[4]; Heart,23.595 h
same,t½,[4]; Heart,13.27 h
same,AUC,[4]; Kidney,2580.5 (h) * (μg/g)
same,AUMC,[4]; Kidney,26548 (h)^2 * (μg/g)
same,MRT last,[4]; Kidney,10.288 h
same,t½,[4]; Kidney,2.0438 h
same,AUC,[4]; Liver,751.01 (h) * (μg/g)
same,AUMC,[4]; Liver,10278 (h)^2 * (μg/g)
same,MRT last,[4]; Liver,13.685 h
same,t½,[4]; Liver,4.9231 h
same,AUC,[4]; Spleen,899.9 (h) * (μg/g)
same,AUMC,[4]; Spleen,19234 (h)^2 * (μg/g)
same,MRT last,[4]; Spleen,21.374 h
same,t½,[4]; Spleen,13.602 h
same,toxicity to heart (safety analysis),heart,cardiotoxic
same,toxicity to heart (safety analysis),heart; iv,cardiotoxic
same,toxicity to heart (safety analysis),heart; po,cardiotoxic
same,toxicity to heart (safety analysis),heart; sc,cardiotoxic
same,Tmax,in vivo [5],8 h
same,AUC,[6]; Blood,105.24 (h) * (μg/μL)
same,AUMC,[6]; Blood,1227.63 (h)^2 * (μg/μL)
same,Cmax,[6]; Blood,8250 µg/mL
same,t½,[6]; Blood,3.741 h
same,AUC,[6]; Heart,248.048 (h) * (μg/g)
same,AUMC,[6]; Heart,3211.86 (h)^2 * (μg/g)
same,MRT last,[6]; Heart,8.9708 h
same,Tmax,[6]; Heart,16 h
same,t½,[6]; Heart,7.533 h
same,AUC,[6]; Kidney,362.639 (h) * (μg/g)
same,AUMC,[6]; Kidney,4321.31 (h)^2 * (μg/g)
same,t½,[6]; Kidney,6.47 h
same,AUC,[6]; Liver,207.816 (h) * (μg/g)
same,AUMC,[6]; Liver,2379.51 (h)^2 * (μg/g)
same,MRT last,[6]; Liver,7.428 h
same,t½,[6]; Liver,6.099 h
same,AUC,[6]; Spleen,190.928 (h) * (μg/g)
same,AUMC,[6]; Spleen,2616.55 (h)^2 * (μg/g)
same,MRT last,[6]; Spleen,9.2978 h
same,t½,[6]; Spleen,5.894 h
same,Cmax,[7]; Blood,22286.7 µg/mL
same,t½,[7]; Heart,4.444 h
same,t½,[7]; Kidney,2.63 h
same,t½,[7]; Liver,3.432 h
same,t½,[7]; Spleen,3.833 h
same,Tmax,in vivo [8],8 h
same,half-life,in vivo [8],2.74 h
